In US20230203058A1, “MACROCYCLIC DIAMINE DERIVATIVES AS ENT INHIBITORS FOR THE TREATMENT OF CANCERS, AND COMBINATION THEREOF WITH ADENOSINE RECEPTOR ANTAGONISTS” (ITEOS BELGIUM SA, priority 2020, published 2023) one finds IC50 data, which are given here for 21 molecules.

The target in one assay is T1, human ENT1 (Homo sapiens, UniProt Q99808).
T1 sequence (Q99808 1-456): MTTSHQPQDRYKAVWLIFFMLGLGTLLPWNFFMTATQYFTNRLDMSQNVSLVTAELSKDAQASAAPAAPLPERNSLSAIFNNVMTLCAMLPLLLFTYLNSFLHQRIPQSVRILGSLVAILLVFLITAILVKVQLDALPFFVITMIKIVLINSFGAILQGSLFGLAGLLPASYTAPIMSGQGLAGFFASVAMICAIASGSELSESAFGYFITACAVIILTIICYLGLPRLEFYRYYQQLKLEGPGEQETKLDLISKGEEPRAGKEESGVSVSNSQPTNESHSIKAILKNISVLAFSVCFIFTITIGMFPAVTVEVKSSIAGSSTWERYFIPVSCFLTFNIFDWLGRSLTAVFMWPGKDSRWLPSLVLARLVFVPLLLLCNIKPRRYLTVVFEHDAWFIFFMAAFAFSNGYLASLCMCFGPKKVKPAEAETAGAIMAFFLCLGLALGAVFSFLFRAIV
The assay is described as follows: ENT1 binding assay (competition with Sahenta-DY647 on JAR cells). Also noted: JAR cells expressing ENT1 were bought from ATCC® (HTB-144TM); host or cells: JAR cells (human choriocarcinoma line; whole cells). To be noted: competition with Sahenta-DY647 100 nM, 4° C. In a few lines:
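Competition binding on intact JAR cells (50000 per well) in HBSS with 10 mM Hepes and 0.1% BSA. Cells pre-incubated with compound 30 min at 4 °C, then Sahenta-DY647 added at its IC90 (100 nM) for another 30 min at 4 °C; after washing, fluorescence read at Ex 630/Em 670 nm.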

For assay [1], the system named is stimulated primary human T cells. Description: T cell proliferation assay (rescue of proliferation in presence of ATP, CFSE dilution). The format is cell-based. Particulars: 100 uM ATP. The procedure: The aim of this study was to determine the potency of equilibrative nucleoside transporter 1 (ENT1) inhibitors to rescue proliferation by stimulated primary human T cells incubated in the presence of 100 uM Adenosine triphosphate (ATP), in baseline conditions (condition A) or in the presence of various proteins known to bind small molecules (condition B). Condition A: X-VIVO15 Condition B: X-VIVO15, 2% Human Serum Albumine (HSA) and 0,1% α-1-Acid Glycoprotein (AAG)
Cryopreserved purified human CD3+ T cells were thawed and washed twice with RPMI1640 medium, UltraGlutamine containing 10% hiFBS.
Cells were suspended in PBS containing 10% hiFBS. Cells were stained with CFSE by adding 2 µM solution in PBS, to get a final 1 µM CFSE solution. Cells were incubated while rotating for 5 minutes. Reaction was stopped by adding PBS with 10% FBS and cells were centrifuged for 5 minutes at 1500 rpm.
Cells were resuspended at 1.6 ×10^6 cells/mL, either in X-VIVO15 medium or in 4% Human Serum Albumin and 0,2% α-1-Acid Glycoprotein. 50 µL of cell suspension (8×10^4 T cells) was added to wells of sterile round-bottom 96-well plates. Cells were activated by adding 50 µL of anti-CD3 anti-CD28 coated microbeads, suspended either in XVIVO-15 medium or in 4% HSA and 0,2% α-1-Acid Glycoprotein, at a ratio of one microbead per two cells. Serial dilutions of the ENT1 inhibitors were prepared in X-VIVO15 from 10 mM stock solutions in DMSO, and 50 µL was added to the wells. ATP powder was diluted in X-VIVO15, and 50 µL of this compound was added to the wells to reach a final assay concentration of 100 µM. Final volume of 200 µL. The experiments were also performed in 384 well plates - all volumes reduced by a factor of 4 (12,5 µL) with a final volume of 50 µL. Experiments were performed in duplicate. The cells were placed in a 37° C. humidified tissue culture incubator with 5% CO2 for 72 hours for 96 well plates, 96 hours for 384 well plates. After 72 or 96 hours, proliferation was measured determined by CFSE dilution via flow cytometry.

The mark [2] stands for this setting: Condition A: X-VIVO15, read-out: T Cell proliferation (Condition A) IC50.
Setting [3] is: Condition B: X-VIVO15, 2% HSA and 0,1% AAG, read-out: (2) T Cell proliferation (Condition B) IC50.

Read-outs that look alike come from different tables or passages of the source.

On to `COc1cc(C(=O)O[C@@H]2CCCOc3cccc(c3)C(=O)OCCCN3CCCN(CC2)CC3)cc(OC)c1OC` (stereo in doubt) [Compound 18, (12R)-6-oxo-5,8-dioxa-1(1,4)-diazepana-7(1,3)-benzenacyclotetradecaphane-12-yl 3,4,5-trimethoxybenzoate], for which the IC50 on human ENT1 was 1 to 20 nM; in assay [1] (setting [2]), 1 to 20 nM; in assay [1] (setting [3]), > 500 nM.
Regarding `COc1cc(C(=O)O[C@@H]2CCCOc3cc(cc(OC)c3OC)C(=O)OCCCN3CCCN(CC2)CC3)cc(OC)c1OC` [Compound 1, (12R)-74,75-dimethoxy-6-oxo-5,8-dioxa-1(1,4)-diazepana-7(1,3)-benzenacyclotetradecaphane-12-yl 3,4,5-trimethoxybenzoate], the IC50 on human ENT1 is 1 to 20 nM; in assay [1] (setting [2]) it was < 1 nM; in assay [1] (setting [3]) it was < 1 nM.
Take `COc1cc(C(=O)O[C@@H]2CCCOc3cc(cc(OC)c3OC)C(=O)OCCCN3CCN(CC2)CC(F)(F)C3)cc(OC)c1OC` [Compound 6, (12R)-16,16-difluoro-74,75-dimethoxy-6-oxo-5,8-dioxa-1(1,4)-diazepana-7(1,3)-benzenacyclotetradecaphane-12-yl 3,4,5-trimethoxybenzoate]: the IC50 at human ENT1 is 1 to 20 nM; in assay [1] (setting [2]), < 1 nM; in assay [1] (setting [3]) it was 20 to 500 nM.
Turning to `COc1cc2cc(c1OC)OCCC[C@@H](OC(=O)c1ccccc1)CCN1CCCN(CCCOC2=O)CC1` [Compound 32, (12R)-74,75-dimethoxy-6-oxo-5,8-dioxa-1(1,4)-diazepana-7(1,3)-benzenacyclotetradecaphane-12-yl benzoate], the IC50 was < 1 nM in assay [1] (setting [2]) and 20 to 500 nM in assay [1] (setting [3]).
At human ENT1, `COc1cc2cc(c1OC)OCCCC(OC(=O)CCn1cncn1)CCN1CCCN(CCCOC2=O)CC1` (stereo not shown) [Compound 102, 74,75-dimethoxy-6-oxo-5,8-dioxa-1 (1,4)-diazepana-7(1,3)-benzenacyclotetradecaphane-12-yl 3-(1H-1,2,4-triazol-1-yl)propanoate] displayed an IC50 of 1 to 20 nM.
For the molecule `COc1cc2cc(c1OC)OCCCC(OC(=O)CCC(=O)N1CCOCC1)CCN1CCCN(CCCOC2=O)CC1` (stereo not shown) [Compound 103, 74,75-dimethoxy-6-oxo-5,8-dioxa-1 (1,4)-diazepana-7(1,3)-benzenacyclotetradecaphane-12-yl 4-morpholino-4-oxobutanoate], the IC50 on human ENT1 is 1 to 20 nM.
On to `COc1cc2cc(c1OC)OCCCC(OC(=O)CCOc1ccc(F)cc1)CCN1CCCN(CCCOC2=O)CC1` (stereo not shown) [Compound 104, 74,75-dimethoxy-6-oxo-5,8-dioxa-1(1,4)-diazepana-7(1,3)-benzenacyclotetradecaphane-12-yl 3-(4-fluorophenoxy)propanoate], for which, at human ENT1, the IC50 is 1 to 20 nM.
The same measure, in the same setting: next, `COc1cc2cc(c1OC)OCCCC(OC(=O)C1CCC(F)(F)CC1)CCN1CCCN(CCCOC2=O)CC1` (stereo not shown) [Compound 105, 74,75-dimethoxy-6-oxo-5,8-dioxa-1(1,4)-diazepana-7(1,3)-benzenacyclotetradecaphane-12-yl 4,4-difluorocyclohexane-1-carboxylate]: 1 to 20 nM.
Still for that read-out and setting: next, `COc1cc2cc(c1OC)OCCCC(OC(=O)C1CCC(C(F)(F)F)CC1)CCN1CCCN(CCCOC2=O)CC1` (stereo not shown) [Compound 106, 74,75-dimethoxy-6-oxo-5,8-dioxa-1(1,4)-diazepana-7(1,3)-benzenacyclotetradecaphane-12-yl 4-(trifluoromethyl)cyclohexane-1-carboxylate]: 1 to 20 nM; `COc1cc2cc(c1OC)OCCCC(n1nnc(-c3ccccc3)n1)CCN1CCCN(CCCOC2=O)CC1` (stereo not shown) [Compound 107, 74,75-dimethoxy-12-(5-phenyl-2 H-tetrazol-2-yl)-5,8-dioxa-1(1,4)-diazepana-7(1,3)-benzenacyclotetradecaphan-6-one]: 1 to 20 nM.
Consider `COc1cc2cc(c1OC)OCCCC(n1cc(-c3ccccc3)nn1)CCN1CCCN(CCCOC2=O)CC1` (stereo not shown) [Compound 108, 74,75-dimethoxy-12-(4-phenyl-1 H-1,2,3-triazol-1-yl)-5,8-dioxa-1(1,4)-diazepana-7(1,3)-benzenacyclotetradecaphan-6-one], for which the IC50 at human ENT1 is > 500 nM.
On human ENT1, `COc1cc2cc(c1OC)OCCCC(OC(=O)CCN1C(=O)CCC1=O)CCN1CCCN(CCCOC2=O)CC1` (stereo not shown) [Compound 110, 74,75-dimethoxy-6-oxo-5,8-dioxa-1(1,4)-diazepana-7(1,3)-benzenacyclotetradecaphane-12-yl 3-(2,5-dioxopyrrolidin-1-yl)propanoate] showed an IC50 of 20 to 500 nM.
With `COc1cc2cc(c1OC)OCCCC(OC(=O)C1CCCC(OC)C1)CCN1CCCN(CCCOC2=O)CC1` (stereo not shown) [Compound 111, 74,75-dimethoxy-6-oxo-5,8-dioxa-1(1,4)-diazepana-7(1,3)-benzenacyclotetradecaphane-12-yl 3-methoxycyclohexane-1-carboxylate], on human ENT1, the IC50 is 1 to 20 nM.
For `COc1cc2cc(c1OC)OCCCC(O/N=C/c1ccccc1)CCN1CCCN(CCCNC2=O)CC1` (stereo not shown) [Compound 114, (E)-benzaldehyde O-(74,75-dimethoxy-6-oxo-8-oxa-5-aza-1(1,4)-diazepana-7(1,3)-benzenacyclotetradecaphane-12-yl) oxime], the IC50 on human ENT1 is > 500 nM.
Take `COc1cc2cc(c1OC)OCCC[C@@H](O/N=C/c1ccccc1)CCN1CCCN(CCCNC2=O)CC1` [Compound 115, (E)-benzaldehyde O-((12R)-74,75-dimethoxy-6-oxo-8-oxa-5-aza-1(1,4)-diazepana-7(1,3)-benzenacyclotetradecaphane-12-yl) oxime]: on human ENT1, the IC50 is > 500 nM.
The same measure, in the same setting: the figure for `COc1cc2cc(c1OC)OCCCC(O)CCN1CCCN(CCCNC2=O)CC1` (stereo not shown) [Compound 117, 12-hydroxy-74,75-dimethoxy-8-oxa-5-aza-1(1,4) -diazepana-7(1,3)-benzenacyclotetradecaphan-6-one] is > 500 nM; for `COc1cc(C(=O)O[C@H]2CCCOc3cc(cc(OC)c3OC)C(=O)OCCCN3CCN(CC2)CC(F)(F)C3)cc(OC)c1OC` [Compound 119, (12S)-16,16-difluoro-74,75-dimethoxy-6-oxo-5,8-dioxa-1(1,4)-diazepana-7(1,3)-benzenacyclotetradecaphane-12-yl 3,4,5-trimethoxybenzoate] it is 1 to 20 nM.
As to `COc1cc(C(=O)OC2CCCOc3cc(cc(C(N)=O)c3Cl)C(=O)OCCCN3CCCN(CC2)CC3)cc(OC)c1OC` (stereo not shown) [Compound 120, 75-carbamoyl-74-chloro-6-oxo-5,8-dioxa-1(1,4)-diazepana-7(1,3)-benzenacyclotetradecaphane-12-yl 3,4,5-trimethoxybenzoate], on human ENT1, the IC50 lay in the range of 1 to 20 nM.
`COc1cc(C(=O)O[C@H]2CCCOc3cc(cc(Cl)c3C(N)=O)C(=O)NCCCN3CCCN(CC2)CC3)cc(OC)c1OC` [Compound 121, (12S)-74-carbamoyl-75-chloro-6-oxo-8-oxa-5-aza-1(1,4)-diazepana-7(1,3)-benzenacyclotetradecaphane-12-yl 3,4,5-trimethoxybenzoate] showed an IC50 on human ENT1 of 20 to 500 nM.
In the case of `COc1cc(C(=O)OC2CCCOc3cc(cc(Cl)c3Br)C(=O)NCCCN3CCCN(CC2)CC3)cc(OC)c1OC` (stereo not shown) [Compound 122, 74-bromo-75-chloro-6-oxo-8-oxa-5-aza-1(1,4)-diazepana-7(1,3)-benzenacyclotetradecaphane-12-yl 3,4,5-trimethoxybenzoate], the IC50 at human ENT1 fell in the range of 1 to 20 nM.
`COc1cc(C(=O)OC2CCCOc3cc(cc(Cl)c3C#N)C(=O)NCCCN3CCCN(CC2)CC3)cc(OC)c1OC` (stereo not shown) [Compound 123, 75-chloro-74-cyano-6-oxo-8-oxa-5-aza-1(1,4)-diazepana-7(1,3)-benzenacyclotetradecaphane-12-yl 3,4,5-trimethoxybenzoate] registered an IC50 on human ENT1 of 1 to 20 nM.
